Activity calls are given as the source filed them. No cut-off for these calls is given here.
Key:
[1] = molecular target: T1, Leucine-rich repeat serine/threonine-protein kinase 2 (Homo sapiens, UniProt Q5S007); assay: Inhibition of 3xFlag-Puro-tagged wildtype human LRRK2 phosphorylation at Ser935 residue overexpressed in HEK293T cells incubated for 24 hrs by SDS-PAGE analysis; type: cell-based
[2] = molecular target: T1, Leucine-rich repeat serine/threonine-protein kinase 2; assay: Inhibition of 3xFlag-Puro-tagged wildtype human LRRK2 phosphorylation at Ser935 residue overexpressed in HEK293T cells at 10 uM incubated for 24 hrs by SDS-PAGE analysis relative to control; type: cell-based
[3] = test system: Leucine-rich repeat serine/threonine-protein kinase 2 (Homo sapiens), Q5S007 [G2019S]; assay: Inhibition of 3xFlag-Puro-tagged human LRRK2 G2019S mutant phosphorylation at Ser935 residue overexpressed in HEK293T cells at 10 uM incubated for 24 hrs by SDS-PAGE analysis relative to control; type: cell-based
[4] = molecular target: T2, Leucine-rich repeat serine/threonine-protein kinase 2 (Homo sapiens, UniProt Q5S007, G2019S); assay: Inhibition of LRRK2 G2019S mutant (unknown origin) using LRRKtide as substrate incubated for 60 mins in presence of ATP by ADP-Glo reagent based assay
[5] = test system: Leucine-rich repeat serine/threonine-protein kinase 2 (Homo sapiens), Q5S007 [G2019S]; assay: Inhibition of LRRK2 G2019S mutant (unknown origin) using LRRKtide as substrate at 10 uM incubated for 60 mins in presence of ATP by ADP-Glo reagent based assay relative to control
[6] = molecular target: T2, Leucine-rich repeat serine/threonine-protein kinase 2; assay: (§1) Inhibition of 3xFlag-Puro-tagged human LRRK2 G2019S mutant phosphorylation at Ser935 residue overexpressed in HEK293T cells incubated for 24 hrs by SDS-PAGE analysis; type: cell-based
[7] = test system: Leucine-rich repeat serine/threonine-protein kinase 2 (Homo sapiens), Q5S007 [G2019S]; assay: as §1; type: cell-based
[8] = molecular target: T1, Leucine-rich repeat serine/threonine-protein kinase 2; assay: Inhibition of wild type LRRK2 (unknown origin) using LRRKtide as substrate at 10 uM incubated for 60 mins in presence of ATP by ADP-Glo reagent based assay relative to control
[9] = molecular target: T1, Leucine-rich repeat serine/threonine-protein kinase 2; assay: Inhibition of wild type LRRK2 (unknown origin) using LRRKtide as substrate incubated for 60 mins in presence of ATP by ADP-Glo reagent based assay
[10] = Toxicity in wild type Zebrafish AB larvae administered from 3 days post fertilization and measured after 96 hrs; parameters: species or system Danio rerio; details: in vivo
Danio rerio [11] = species on record: Danio rerio; assay: Neuroprotective activity against 6-OHDA-induced neurotoxicity in wild type Zebrafish AB larvae assessed as increase of total movement distance at 12.5 uM treated with compound from 3 days post fertilization and measured after 4 days; type: functional, organism-based; details: time 4.0 day
Danio rerio [12] = species on record: Danio rerio; assay: Neuroprotective activity against 6-OHDA-induced neurotoxicity in wild type Zebrafish AB larvae assessed as increase in travel distance at high velocity at 12.5 uM treated with compound from 3 days post fertilization and measured after 4 days; type: functional, organism-based; details: time 4.0 day
[13] = Toxicity in wild type Zebrafish AB larvae assessed as effect on survival rate at 12.5 to 100 uM administered from 3 days post fertilization and measured after 96 hrs; parameters: species or system Danio rerio; details: in vivo, dose 12.5-100 µM
Danio rerio [14] = species on record: Danio rerio; assay: Neuroprotective activity against 6-OHDA-induced neurotoxicity in wild type Zebrafish AB larvae assessed as improvement in swimming behavior at 150 uM treated with compound from 3 days post fertilization and measured after 4 days; type: functional, organism-based; details: time 4.0 day
Danio rerio [15] = species on record: Danio rerio; assay: Neuroprotective activity against 6-OHDA-induced neurotoxicity in wild type Zebrafish AB larvae assessed as increase in total swimming distance at 150 uM treated with compound from 3 days post fertilization and measured after 4 days; type: functional, organism-based; details: time 4.0 day
Danio rerio [16] = species on record: Danio rerio; assay: Neuroprotective activity against 6-OHDA-induced neurotoxicity in wild type Zebrafish larvae AB assessed as increase in travel distance at high velocity at 12.5 to 50 uM treated with compound from 3 days post fertilization and measured after 4 days; type: functional, organism-based; details: dose 12.5-50 µM, time 4.0 day
Danio rerio [17] = species on record: Danio rerio; assay: Neuroprotective activity against 6-OHDA-induced neurotoxicity in wild type Zebrafish AB larvae assessed as increase in travel distance at high velocity at 50 uM treated with compound from 3 days post fertilization and measured after 4 days; type: functional, organism-based; details: time 4.0 day
Danio rerio [18] = species on record: Danio rerio; assay: Neuroprotective activity against 6-OHDA-induced neurotoxicity in wild type Zebrafish AB larvae assessed as increase in travel distance at high velocity treated with compound from 3 days post fertilization and measured after 4 days; type: functional, organism-based; details: dose 12.5-50 µM, time 4.0 day

T2 sequence (Q5S007 whole entry G2019S): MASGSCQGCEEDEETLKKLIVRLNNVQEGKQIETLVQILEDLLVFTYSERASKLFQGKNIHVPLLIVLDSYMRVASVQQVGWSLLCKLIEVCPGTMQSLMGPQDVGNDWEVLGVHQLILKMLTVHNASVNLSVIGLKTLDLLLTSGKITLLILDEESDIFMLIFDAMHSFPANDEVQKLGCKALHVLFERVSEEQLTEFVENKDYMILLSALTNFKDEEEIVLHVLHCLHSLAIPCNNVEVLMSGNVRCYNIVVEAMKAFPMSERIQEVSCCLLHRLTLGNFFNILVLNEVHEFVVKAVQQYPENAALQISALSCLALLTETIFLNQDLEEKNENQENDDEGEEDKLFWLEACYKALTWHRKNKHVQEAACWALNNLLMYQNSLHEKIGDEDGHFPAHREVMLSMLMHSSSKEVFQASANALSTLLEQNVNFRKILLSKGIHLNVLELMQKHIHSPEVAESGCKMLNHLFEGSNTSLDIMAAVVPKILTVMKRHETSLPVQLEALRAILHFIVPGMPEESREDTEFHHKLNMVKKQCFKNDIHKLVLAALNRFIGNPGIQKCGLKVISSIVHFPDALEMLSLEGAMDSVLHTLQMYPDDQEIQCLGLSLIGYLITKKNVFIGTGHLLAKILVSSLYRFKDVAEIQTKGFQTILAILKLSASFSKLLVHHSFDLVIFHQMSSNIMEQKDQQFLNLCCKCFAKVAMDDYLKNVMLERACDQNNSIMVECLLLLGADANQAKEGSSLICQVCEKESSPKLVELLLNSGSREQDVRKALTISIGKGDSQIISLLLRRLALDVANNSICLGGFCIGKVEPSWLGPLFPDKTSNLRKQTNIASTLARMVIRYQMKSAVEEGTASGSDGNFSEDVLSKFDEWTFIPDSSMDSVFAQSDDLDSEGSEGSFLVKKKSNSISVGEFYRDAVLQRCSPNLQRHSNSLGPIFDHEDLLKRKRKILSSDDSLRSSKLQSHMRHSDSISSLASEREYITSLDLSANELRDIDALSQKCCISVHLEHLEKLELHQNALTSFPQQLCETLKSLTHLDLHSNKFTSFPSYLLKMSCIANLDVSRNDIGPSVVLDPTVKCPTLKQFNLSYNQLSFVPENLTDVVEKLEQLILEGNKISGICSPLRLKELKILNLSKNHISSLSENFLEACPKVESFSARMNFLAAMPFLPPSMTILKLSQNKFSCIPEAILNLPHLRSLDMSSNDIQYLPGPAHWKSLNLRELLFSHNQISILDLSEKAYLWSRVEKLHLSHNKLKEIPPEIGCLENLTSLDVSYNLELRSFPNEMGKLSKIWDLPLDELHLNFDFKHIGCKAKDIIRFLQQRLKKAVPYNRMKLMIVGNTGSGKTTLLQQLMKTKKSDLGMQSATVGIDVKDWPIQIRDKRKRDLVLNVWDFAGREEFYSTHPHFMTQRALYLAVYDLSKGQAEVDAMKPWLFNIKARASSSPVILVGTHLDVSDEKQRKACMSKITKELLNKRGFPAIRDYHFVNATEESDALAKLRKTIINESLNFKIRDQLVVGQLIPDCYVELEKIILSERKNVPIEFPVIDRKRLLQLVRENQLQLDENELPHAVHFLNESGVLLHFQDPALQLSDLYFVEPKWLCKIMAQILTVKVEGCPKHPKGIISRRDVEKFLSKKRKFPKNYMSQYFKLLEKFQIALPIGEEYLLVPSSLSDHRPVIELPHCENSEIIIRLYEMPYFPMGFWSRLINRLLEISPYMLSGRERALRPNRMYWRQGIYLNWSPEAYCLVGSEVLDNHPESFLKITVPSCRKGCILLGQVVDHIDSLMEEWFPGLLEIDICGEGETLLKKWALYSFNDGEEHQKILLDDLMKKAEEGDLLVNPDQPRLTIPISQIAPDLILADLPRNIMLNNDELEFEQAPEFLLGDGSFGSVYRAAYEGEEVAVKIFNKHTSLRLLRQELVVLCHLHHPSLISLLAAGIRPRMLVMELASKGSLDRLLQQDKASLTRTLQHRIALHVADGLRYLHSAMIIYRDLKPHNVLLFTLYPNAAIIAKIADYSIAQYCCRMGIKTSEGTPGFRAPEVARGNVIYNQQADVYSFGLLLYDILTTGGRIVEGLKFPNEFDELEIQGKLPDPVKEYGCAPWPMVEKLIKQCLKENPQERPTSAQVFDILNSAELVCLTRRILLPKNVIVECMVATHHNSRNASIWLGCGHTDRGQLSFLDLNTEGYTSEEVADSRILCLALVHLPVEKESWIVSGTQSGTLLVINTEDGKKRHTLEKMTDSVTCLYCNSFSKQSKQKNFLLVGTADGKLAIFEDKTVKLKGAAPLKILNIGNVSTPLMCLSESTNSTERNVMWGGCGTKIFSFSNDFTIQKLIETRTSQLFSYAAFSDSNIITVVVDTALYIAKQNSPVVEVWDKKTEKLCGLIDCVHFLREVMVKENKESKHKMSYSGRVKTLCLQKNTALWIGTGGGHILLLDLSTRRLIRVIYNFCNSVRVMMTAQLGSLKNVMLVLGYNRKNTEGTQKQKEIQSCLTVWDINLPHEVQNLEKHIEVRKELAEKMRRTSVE
Chain of Leucine-rich repeat serine/threonine-protein kinase 2 (Homo sapiens), Q5S007 [G2019S] (Q5S007 whole entry G2019S): as above
T1 sequence (Q5S007 whole entry): as the sequence (Q5S007 whole entry G2019S) above, with S2019G counted along it

| inhibition [2] [%] | inhibition [3] [%] | IC50 [4] [µM] | inhibition [5] [%] | inhibition [8] [%] | IC50 [9] [µM] | Compound | IC50 [1] [µM] | inhibition [1] | IC50 [6] [µM] | inhibition [7] | LC50 at 96 h [10] [µM] | Activity [13] | further results |
| --- | --- | --- | --- | --- | --- | --- | --- | --- | --- | --- | --- | --- | --- |
| > 80 | > 60 | 0.556 | > 80 | > 80 | 0.803 | O=C(Nc1n[nH]c2ccccc12)c1cc(-c2cccnc2)n[nH]1 | 1.19 | Dose-dependent-effect | 0.605 | Dose-dependent-effect | – | – | – |
| – | – | 2.09 | > 50 | > 50 | 50.3 | CNC(=O)c1sc2ccc(NC(=O)c3n[nH]c4ccccc34)cc2c1OC | – | – | – | – | – | – | – |
| – | – | 5.59 | > 50 | > 50 | 7.15 | c1ccc2c(c1)ncn1nc(-c3cc(C4CC4)[nH]n3)nc21 | – | – | – | – | – | – | – |
| – | – | 3.63 | > 50 | > 50 | 39.4 | Cn1cccc1-c1cc(C(=O)N/N=C2/C(=O)Nc3ccccc32)[nH]n1 | – | – | – | – | – | – | – |
| – | – | 4.92 | > 50 | > 50 | 3.12 | Fc1ccc(-c2n[nH]cc2/C=N\Nc2nc3ccccc3[nH]2)cc1 | – | – | – | – | – | – | – |
| > 80 | > 60 | – | > 80 | > 80 | – | c1cc(OCCN2CCCCC2)cc(-c2n[nH]c3ccc(-c4nnc[nH]4)cc23)c1 | – | Dose-dependent-effect | – | Dose-dependent-effect | – | – | Activity (Danio rerio [16]): inactive |

More lines, now with the values behind:

| Compound | inhibition [2] [%] | inhibition [3] [%] | IC50 [4] [µM] | inhibition [5] [%] | inhibition [8] [%] | IC50 [9] [µM] | IC50 [1] [µM] | inhibition [1] | IC50 [6] [µM] | inhibition [7] | LC50 at 96 h [10] [µM] | Activity [13] | further results |
| --- | --- | --- | --- | --- | --- | --- | --- | --- | --- | --- | --- | --- | --- |
| COc1cc(C(=O)N2CCC(N3CCN(C)CC3)CC2)ccc1Nc1ncc2c(n1)N(C)c1ccccc1C(=O)N2C | – | – | – | – | – | 0.0031 | 0.017 | Dose-dependent-effect | 0.0221 | Dose-dependent-effect | > 100 | Toxic | Activity (Danio rerio [11]): Active; Activity (Danio rerio [12]): Active |
| N[C@@H](Cc1ccc(O)c(O)c1)C(=O)O | – | – | – | – | – | – | – | – | – | – | – | – | Activity (Danio rerio [14]): Active; Activity (Danio rerio [15]): Active |
| Cl.c1cc(OCCN2CCCCC2)cc(-c2n[nH]c3ccc(-c4nc[nH]n4)cc23)c1 | – | – | 0.0224 | – | – | 0.0096 | 0.0271 | – | 0.0491 | – | > 100 | Toxic | – |
| CC[C@](C)(Nc1ccnc(-c2c[nH]c3ncccc23)n1)C(=O)NCC(F)(F)F | > 80 | > 60 | 0.218 | > 80 | > 80 | 1.34 | 1.67 | Dose-dependent-effect | 0.337 | Dose-dependent-effect | > 100 | Toxic | Activity (Danio rerio [17]): Active; Activity (Danio rerio [18]): Dose-dependent-effect |

Reference: ChEMBL document CHEMBL6074630, “Discovery of potent LRRK2 inhibitors by ensemble virtual screening strategy and bioactivity evaluation” (Eur J Med Chem, 2024)
